{"source": "patent US11040959B2", "about": "“Diprovocims: a new and potent class of TLR agonists” (The Scripps Research Institute, priority 2016, dated 2021)", "assay_type_in_all_cases": "cell-based", "key": {"[1]": {"test_system": "differentiated human THP-1 cells", "assay": "stimulated release of TNF-α from differentiated human THP-1 cells (ELISA, dose-response)", "conditions": "for EC50: Homo sapiens", "procedure,_shortened": "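Human THP-1 cells were PMA-differentiated toward macrophages, and stimulated TNF-α release was measured by ELISA. EC50 values were taken from dose-response curves.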"}, "mouse macrophages": {"test_system": "mouse macrophages", "assay": "stimulated release of TNF-α from mouse macrophages", "conditions": "for EC50: Macrophage", "procedure,_shortened": "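EC50 derived from dose-response curves for stimulated TNF-α release from mouse macrophages.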"}, "[2]": {"test_system": "TNF-α release stimulated by diprovocim-1 (3)", "assay": "antagonist test: inhibition of the activity of diprovocim-1 (3) on co-administration", "conditions": "co-administered at 5 μM"}, "[3]": {"conditions": "THP-1, running text, read-out: EC50, stimulated release of TNF-α from differentiated human THP-1 cells"}}, "note": "Like-named read-outs stand apart in the source and are kept apart here."}
{"compound": "O=C(NCCc1ccccc1)[C@@H]1CN(C(=O)c2ccc(C(=O)N3C[C@@H](C(=O)NCCc4ccccc4)[C@H](C(=O)NCCc4ccccc4)C3)cc2)C[C@H]1C(=O)NCCc1ccccc1", "note": "[Compound 8, trans,trans-1,1′-Terephthaloylbis-(N^3, N^4-diphenethylpyrrolidine-3,4-dicarboxamide)]", "values": [{"measurement": "EC50", "setting": "[1]; [3]", "value": "> 5000", "unit": "nM"}, {"measurement": "activity in stimulating TNF-α release from human THP-1 cells (in words)", "setting": "[1]; tested up to 5 μM where stated", "value": "inactive"}, {"measurement": "EC50", "setting": "mouse macrophages; Mus musculus, read-out: EC50, stimulated release of TNF-α from mouse macrophages", "value": "> 5000", "unit": "nM"}, {"measurement": "antagonist activity, inhibiting the activity of diprovocim-1 (3)", "setting": "[2]", "value": "incapable of acting as an antagonist"}]}
{"compound": "CCCCCCCCCCCCNC(=O)[C@@H]1CCN(C(=O)c2ccc(C(=O)N3C[C@@H](C(=O)N[C@H]4C[C@@H]4c4ccccc4)[C@H](C(=O)N[C@H]4C[C@@H]4c4ccccc4)C3)cc2)C1", "note": "[Compound 127, (3S,4S)-1-(4-((R)-3-(Dodecylcarbamoyl)-pyrrolidine-1-carbonyl)benzoyl)—N^3,N^4-bis((1S,2R)-2-phenylcyclopropyl)pyrrolidine-3,4-dicarboxamide]", "values": [{"measurement": "EC50", "setting": "[1]; THP-1, table of 125-132 (one lipid side chain, R and S), human THP-1 cells, read-out: EC50 (nM) (THP-1)", "value": 9, "unit": "nM"}, {"measurement": "EC50", "setting": "mouse macrophages; table of 125-132 (one lipid side chain, R and S), mouse macrophages, read-out: EC50 (nM) (mouse)", "value": 700, "unit": "nM"}]}
{"compound": "O=C(N[C@H]1C[C@@H]1c1ccccc1)[C@@H]1CN(C(=O)c2ccc(C(=O)N3C[C@@H](C(=O)N[C@H]4C[C@@H]4c4ccccc4)[C@H](C(=O)N[C@H]4C[C@@H]4c4ccccc4)C3)s2)C[C@H]1C(=O)N[C@H]1C[C@@H]1c1ccccc1", "note": "[Compound 49, (3S,3′S,4S,4′S)-1,1′-(Thiophene-2,5-dicarbonyl)-bis(N^3,N^4-bis((1S,2R)-2-phenylcyclopropyl)-pyrrolidine-3,4-dicarboxamide)]", "values": [{"measurement": "EC50", "setting": "[1]; THP-1, Table 3, TNF-α release from human THP-1 cells, read-out: EC50 (nM) (THP-1)", "value": 350, "unit": "nM"}, {"measurement": "EC50", "setting": "mouse macrophages; Table 3, TNF-α release from mouse macrophages, read-out: EC50 (nM) (mouse)", "value": "> 5000", "unit": "nM"}]}
{"compound": "O=C(NCCc1ccc(F)cc1)[C@@H]1CN(C(=O)[C@H]2CC[C@H](C(=O)N3C[C@@H](C(=O)NCCc4ccc(F)cc4)[C@H](C(=O)NCCc4ccc(F)cc4)C3)CC2)C[C@H]1C(=O)NCCc1ccc(F)cc1", "note": "[Compound 107, (3S,3′S,4S,4′S)-1,1′-((1S,4S)-Cyclohexane-1,4-dicarbonyl)bis(N^3,N^4-bis(4-fluorophenethyl)-pyrrolidine-3,4-dicarboxamide)]", "values": [{"measurement": "EC50", "setting": "[1]; THP-1, Table 7, TNF-α release from human THP-1 cells, read-out: EC50 (nM) (THP-1)", "value": "> 5000", "unit": "nM"}, {"measurement": "EC50", "setting": "mouse macrophages; Table 7, TNF-α release from mouse macrophages, read-out: EC50 (nM) (mouse)", "value": "> 5000", "unit": "nM"}]}
{"compound": "CC(C)(C)OC(=O)CCOCCOCCOCCOc1cc(C(=O)N2C[C@@H](C(=O)N[C@H]3C[C@@H]3c3ccccc3)[C@H](C(=O)N[C@H]3C[C@@H]3c3ccccc3)C2)ccc1C(=O)N1C[C@@H](C(=O)N[C@H]2C[C@@H]2c2ccccc2)[C@H](C(=O)N[C@H]2C[C@@H]2c2ccccc2)C1", "note": "[Compound 148, tert-Butyl 3-(2-(2-(2-(2,5-Bis((3S,4S)-3,4-bis(((1S,2R)-2-phenyl-cyclopropyl)carbamoyl)-pyrrolidine-1-carbonyl)-phenoxy)ethoxy)ethoxy)-ethoxy)propanoate]", "values": [{"measurement": "EC50", "setting": "[1]; THP-1, table of functionalized derivatives 147-151, human THP-1 cells, read-out: EC50 (nM) (THP-1)", "value": 190, "unit": "nM"}, {"measurement": "EC50", "setting": "mouse macrophages; table of functionalized derivatives 147-151, mouse macrophages, read-out: EC50 (nM) (mouse)", "value": "> 5000", "unit": "nM"}]}
{"compound": "O=C(N[C@H]1C[C@@H]1c1ccccc1)[C@@H]1CN(C(=O)c2ccc(C(=O)N3CCCC3)cc2)C[C@H]1C(=O)N[C@H]1C[C@@H]1c1ccccc1", "note": "[Compound 30, (3S,4S)—N^3,N^4-Bis((S, 2R)-2-phenyl-cyclopropyl)-1-(4-(pyrrolidine-1-carbonyl)benzoyl)-pyrrolidine-3,4-dicarboxamide]", "values": [{"measurement": "EC50", "setting": "[1]; [3]", "value": 2000, "unit": "nM"}, {"measurement": "fold less active/potent than diprovocim-1 (3)", "setting": "[1]; human THP-1 cells", "value": "20,000 fold"}, {"measurement": "fold less active than 29", "setting": "mouse macrophages; printed as in mouse macrophages", "value": 10, "unit": "fold"}]}
